The record followed here is PubChem BioAssay (NCI).

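Briefly, cells in 96-well plates were exposed to five compound concentrations for 48 h, and endpoints were estimated by linear interpolation. At the GI50, growth is halved. TGI denotes the concentration required for complete inhibition of growth.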

Among the test systems are HCC-2998 colon; HOP-62 NSCLC; KM12 colon; NCI-H23 lung; OVCAR-5 ovarian; SN12C renal; SNB-75 CNS; UO-31 renal; CAKI-1 renal; OVCAR-8 ovarian.
What all share (test): inhibition of tumour cell growth, NCI panel, 48 h

Regarding `COc1c(Cl)cc(S(=O)O)cc1Cl`, the TGI with HCC-2998 colon, in the experiment on HOP-62 NSCLC, with KM12 colon, in the experiment on NCI-H23 lung, with OVCAR-5 ovarian and in the experiment on SN12C renal was more than 100 µM in each case. Besides, the TGI in the experiment on SNB-75 CNS and in the experiment on UO-31 renal was more than 100 µM throughout.

With `Fc1ccc(-c2nnc3sc(COc4ccccc4Cl)nn23)cc1Cl`, the GI50 in the experiment with CAKI-1 renal is 76.6 µM; with HCC-2998 colon, more than 100 µM; with HOP-62 NSCLC, 49.5 µM; in the experiment on KM12 colon, 77.1 µM; in the experiment with NCI-H23 lung, 33.4 µM; in the experiment with OVCAR-5 ovarian, 81 µM. For the same compound, the GI50 was 37.8 µM with OVCAR-8 ovarian, 31.9 µM in the experiment on SN12C renal, 47.3 µM in the experiment with SNB-75 CNS and 32.7 µM in the experiment with UO-31 renal. Moreover, the TGI in the experiment on CAKI-1 renal, in the experiment with HCC-2998 colon, in the experiment with HOP-62 NSCLC, in the experiment on KM12 colon, in the experiment on NCI-H23 lung and in the experiment on OVCAR-5 ovarian was more than 100 µM in each case. In addition, the TGI in the experiment on OVCAR-8 ovarian, in the experiment on SN12C renal, in the experiment with SNB-75 CNS and in the experiment with UO-31 renal was more than 100 µM in each case.

`c1ccc2sc(SCN(C3CCCCC3)C3CCCCC3)nc2c1`: the TGI in the experiment on CAKI-1 renal, with HCC-2998 colon, in the experiment on HOP-62 NSCLC, with KM12 colon, in the experiment on NCI-H23 lung and with OVCAR-5 ovarian was more than 100 µM each time. Besides, the TGI in the experiment on OVCAR-8 ovarian and in the experiment with UO-31 renal was more than 100 µM in each case.

As to `CC(CO)(CO)Nc1ncnc2ccccc12`, the TGI in the experiment on CAKI-1 renal, in the experiment with HCC-2998 colon, in the experiment with HOP-62 NSCLC, with KM12 colon, in the experiment on NCI-H23 lung and with OVCAR-5 ovarian was more than 100 µM in each case. In addition, the TGI in the experiment on OVCAR-8 ovarian, with SN12C renal, in the experiment with SNB-75 CNS and with UO-31 renal was more than 100 µM each time.

For `Nc1nnc(N)n1NC(=O)C(=O)Nc1ccc([N+](=O)[O-])cc1`, the TGI in the experiment on CAKI-1 renal, in the experiment with HCC-2998 colon, in the experiment with HOP-62 NSCLC, with KM12 colon, with NCI-H23 lung and in the experiment on OVCAR-5 ovarian was more than 100 µM in each case. The TGI in the experiment on OVCAR-8 ovarian, in the experiment with SN12C renal, with SNB-75 CNS and with UO-31 renal was more than 100 µM throughout.

Consider `NC(=O)Nc1cc(O)ccc1N=Nc1ccc(S(=O)(=O)Nc2ccccn2)cc1`, for which the TGI with CAKI-1 renal, in the experiment on HCC-2998 colon, in the experiment on HOP-62 NSCLC, in the experiment on KM12 colon, in the experiment with NCI-H23 lung and with OVCAR-5 ovarian was more than 100 µM each time. Further, the TGI in the experiment with OVCAR-8 ovarian, with SN12C renal, with SNB-75 CNS and with UO-31 renal was more than 100 µM throughout.

Turning to `COc1cc(O)c2c(c1)C(=O)c1cc(C)cc(O)c1C2=O`, the TGI with CAKI-1 renal, with HCC-2998 colon, with HOP-62 NSCLC, in the experiment on KM12 colon, in the experiment on NCI-H23 lung and in the experiment with OVCAR-5 ovarian was more than 100 µM each time. Besides, the TGI with OVCAR-8 ovarian, in the experiment on SN12C renal, in the experiment on SNB-75 CNS and with UO-31 renal was more than 100 µM each time.
